From patent US20210311050A1, “TARGETING PATHOGENIC B CELLS IN AUTOIMMUNITY” (Research Foundation for the STATE UNIVERSITY OF NEW YORK, priority 2018, published 2021) come the findings set out here.

Experiment [1] deals with CD11c^+ CD19^+ B cells. The experiment in a line: Depletion of T-bet+ B cells in lupus-prone MRL/lpr mice (flow cytometry of spleen cells). The format is in vivo, MRL/lpr (MRL/MpJ-Fas^lpr/J) mice. As to conditions: 12 to 13 week old MRL/lpr mice, treated every other day for 7 days. As to the method: FIGS. 5A-5B. Agonist treatment eliminated T-bet^+ B cells in lupus-prone MRL/lpr (MRL/MpJ-Fas^lpr/J) mice. CD11c and CD19 flow cytometry data from (A) vehicle-treated mice and (B) A2aR agonist (CGS21680)-treated mice. 12 to 13 week old MRL/lpr mice were treated with vehicle, or CGS21680, every other day for 7 days, at which time spleen cells were analyzed by flow cytometry.

The test system of a further experiment is CD11c^+ T-bet^+ B cells. Put plainly: Depletion of splenic CD11c+ T-bet+ B cells in E. muris-infected mice (flow cytometry). The format is in vivo, C57BL/6 mice.
Experiment [2] concerns T-bet+ Age-related B cells (ABCs). Put plainly: Depletion of T-bet+ Age-related B cells (ABCs) in aged mice. The format is in vivo. To be noted: administered at day 0, 4 and 6; sacrificed day 7; flow cytometry. As to the method:
FIG. 8A-8C. T-bet+ Age-related B cells (ABCs) were depleted in aged mice upon CGS21680 treatment. CD11c and CD19 flow cytometry data from (A) vehicle-treated and (B) A2aR agonist-(CGS21680) treated aged mice. CGS21680 was administered at day 0, 4 and 6. Mice were sacrificed on day 7 and ABCs were identified using flow cytometry. (C) Quantification of the data in (A) and (B).

Experiment [3] has as its system CD11c^+ CD19^+ B cells (also T-bet^+). The experiment in a line: Agonist treatment of E. muris-infected wild-type versus B cell-specific A2aR KO mice (flow cytometry of spleen cells). The format is in vivo. As to conditions: 30 days post-infection, treated every other day for 7 days. How it is done:
FIGS. 3A-3B. […] CD11c and CD19 flow cytometry data from (A) Wild type mice (B) mice that lacked A2aR only on B cells. The mice were infected with E. muris; 30 days post-infection wild-type or MB1-cre×A2aR^fl/fl (B cell-specific A2aR KO) mice were treated with CGS21680 every other day for 7 days, at which time spleen cells were analyzed by flow cytometry. CD11c^+ CD19^+ B cells (also T-bet^+) were eliminated in the wild-type mice (A), but not in the B cell-specific A2aR KO mice (B). The data shown are representative of several experiments.

The subject of experiment [4] is CD11c^+ CD19^+ or T-bet^+ CD19^+ B cells. Put plainly: Depletion of T-bet+ B cells in lupus-prone SLE1.2.3 mice (flow cytometry of spleen cells). The format is in vivo, SLE1.2.3 (B6.NZMs^Sle1/Sle2/Sle3) mice. To be noted: nine-month old SLE mice, treated every other day for 7 days, n=6. How it is done:
FIGS. 4A-4D. Agonist treatment eliminated T-bet+ B cells in lupus-prone SLE1.2.3 (B6.NZMs^Sle1/Sle2/Sle3) mice. (A) CD11c and CD19 flow cytometry data from vehicle treated mice. (B) CD11c and CD19 flow cytometry data from A2aR agonist (CGS21680)-treated mice. (C) T-bet and CD19 flow cytometry data from vehicle-treated mice. (D) T-bet and CD19 flow cytometry data from agonist (CGS21680)-treated mice. Nine-month old SLE mice were treated with vehicle, or CGS21680, every other day for 7 days, at which time spleen cells were analyzed by flow cytometry. CD11c^+ CD19^+ ((A) and (B)) or T-bet^+ CD19^+ ((C) and (D)) B cells were analyzed. […] The data shown are representative of an experiment where n=6.

Experiment [5] concerns anti-nuclear antibodies (ANAs). Put plainly: Anti-nuclear antibodies in lupus-prone MRL/lpr mice. The format is in vivo. As to conditions: once weekly from 9 weeks of age, sacrificed at 15 weeks of age. An excerpt:
FIG. 9. […] CGS21680-treated mice had much lower amounts of anti-nuclear antibodies (ANAs). ANAs are a signature of disease in lupus mice.

The test system of experiment [6] is CD11c^+ CD19^+ B cells. The experiment in a line: In vitro agonist treatment of T cell-depleted spleen cells from E. muris-infected mice. The format is cell-based. As to conditions: 48 hours. How it is done:
FIGS. 6A-6B. In vitro agonist treatment eliminated T-bet^+ B cells. CD11c and CD19 flow cytometry data using B cells isolated from (A) vehicle-treated splenocytoes and (B) A2aR agonist (CGS21680)-treated splenocytes. C57BL/6 mice were infected with E. muris; 30 days post-infection, T cell-depleted spleen cells were incubated in cell culture medium treated with vehicle, or CGS21680 (1 μM), for 48 hours. Approximately 50% of the CD11c^+ CD19^+ B cells were depleted by the agonist.
FIGS. 7A-7B. In vitro Regadenoson treatment eliminated T-bet^+ B cells. (A) vehicle treated splenocytes and (B) agonist (Regadenoson)-treated splenocytes. Mice were infected with E. muris; 44 days post-infection, T cell-depleted spleen cells were incubated in medium with or without Regadenson (10 μM), for 48 hours. Approximately 30% of the CD11c^+ CD19^+ B cells were depleted by Regadenoson in vitro.

“Also recorded” adds a separate entry of the source.

`CCNC(=O)[C@H]1O[C@@H](n2cnc3c(N)nc(NCCc4ccc(CCC(=O)O)cc4)nc32)[C@H](O)[C@@H]1O` [CGS21680]: the “CD11c^+ CD19^+ B cells in spleen” value with CD11c^+ CD19^+ B cells [1] is reported as “Most of the CD11c^+ CD19^+ B cells were eliminated”. Further, the “CD11c^+ T-bet^+ B cells in spleen after cessation of treatment” value with CD11c^+ T-bet^+ B cells (2.5 mg/kg daily for 7 days from day 30, spleen harvested 12 days following cessation (day 48), p<0.0001 vs vehicle) was “prolonged depletion; also recorded: Significant cell depletion”. In addition, in the experiment on CD11c^+ T-bet^+ B cells (E. muris infection day 0, 2.5 mg/kg daily for 7 days from day 30, spleen harvested day 37, p<0.0001 vs vehicle, 2.5 mg/kg), the “CD11c^+ T-bet^+ B cells in spleen after agonist treatment” value was “largely absent; also recorded: major reduction”. Moreover, in experiment [2], the “T-bet+ Age-related B cells (ABCs) in aged mice” value is on record as “depleted”. The “CD11c^+ CD19^+ B cells (also T-bet^+) in spleen, B cell-specific A2aR KO mice” value in experiment [3] (MB1-cre×A2aR^fl/fl mice) was “did not eliminate”. Further, the “CD11c^+ CD19^+ B cells (also T-bet^+) in spleen, wild-type mice” value in experiment [3] (wild-type mice) is listed as “eliminated”. Also, the “CD11c^+ CD19^+ or T-bet^+ CD19^+ B cells in spleen” value in experiment [4] was “largely eliminated”. The “amounts of anti-nuclear antibodies (ANAs)” value in experiment [5] is “much lower”. In the experiment with CD11c^+ CD19^+ B cells [6] (1 μM, 30 days post-infection), the “CD11c^+ CD19^+ B cells depleted in vitro” value is recorded as “Approximately 50%”.
With `CNC(=O)c1cnn(-c2nc(N)c3ncn([C@@H]4O[C@H](CO)[C@@H](O)[C@H]4O)c3n2)c1` [Regadenoson], the “number of Tbet^+ B cells in splenocytes” value in the experiment with CD11c^+ T-bet^+ B cells (2.5 mg/kg every other day for 7 days from day 30 post-infection, analysed day 37, P=0.0049 vs vehicle) is “reduced”. In addition, the “CD11c^+ CD19^+ B cells depleted in vitro” value in the experiment on CD11c^+ CD19^+ B cells [6] (10 μM, 44 days post-infection) is “Approximately 30%”.
